Experimental data reported in US20030228299A1, “Use of antioxidant for treating and/or preventing surface ocular disorders” (priority 2003, published 2003).

Assays:
[1] = tested on: corneal and conjunctival cells of human origin, in culture; experiment: Hydroethidine test of superoxide anion production; type: cell-based; conditions: different concentrations; cells exposed to various aggressors
Procedure: Corneal and conjunctival cells of human origin, in culture, exposed to various aggressors in order to induce the release of free radicals, are treated with the active compounds of the present invention (Cu/Zn SOD or alpha-lipoic acid) at different concentrations, or are left untreated.
Hydroethidine (Molecular Probes) is a fluorogenic probe which is oxidized to the ethidium cation in the presence of the superoxide anion. This probe becomes fluorescent when it binds to the superoxide anion (λexc.=490 nm−λem.=600 nm, I=6 V). The hydroethidine solution used is a 5 μM solution. The cell cultures are placed for 10 minutes in DMEM containing the probe, after which the cells are extracted in order to measure the production of superoxide anion. The measurement is made in 96-well microplates.
The analyses are thus performed on 5000 cells per well, each measurement being repeated six times. The results are expressed in fluorescence units. The mean fluorescence values are calculated in each group and compared by a Mann-Whitney non-parametric U-test.

[2] = tested on: continuous-line conjunctival cells (Wong-Kilbourne derivative of Chang conjunctiva, clone 1-5C-4, ATCC CCL-20.2); experiment: Apoptosis induced by benzalkonium chloride, percentage of cellular DNA in the sub-G1 phase by flux cytofluorimetry; type: cell-based
Procedure: The apoptosis induced by benzalkonium chloride was chosen as the model of superficial eye disorders treated and/or prevented by the invention.
This study of apoptosis is conducted using flux cytofluorimetry to compare the percentage of DNA in the sub-G1 phase obtained before and after treatment with the compounds of the invention.
In fact, apoptosis is characterized by a fragmentation of the DNA into identical fragments of 200 base pairs. The cells involved in this process therefore have a reduced DNA content.
This fragmentation of the DNA can be measured in situ by flux cytofluorimetry using the DNA stain propidium iodide. The reduced DNA appears with a lower fluorescence intensity than that of normal cells. […] The number of normal cells appears in the G1 peak zone. On the other hand, the cells which have a lower fluorescence intensity, i.e. those whose DNA has been fragmented, appear underneath this G1 peak, i.e. in what is called the sub-G1 peak located in the zone marked M1 in FIG. 1.
Apoptosis was induced by adding 0.001% by volume of benzalkonium chloride (BAC), based on the total volume of the sample, to DMEM (Dulbecco-modified Eagle's medium: reference 21885, Gibco BRL Products; enriched with 10% by volume of fetal calf serum, based on the total volume of the sample, and supplemented with […] of streptomycin and 50 IU/ml of penicillin) in which conjunctival cells are cultivated in 6-well plates.
In practice, the conjunctival cells were cultivated in the culture medium described above and, at 80% confluence, SOD, alpha-lipoic acid and mixtures thereof were added and incubation was carried out for 45 minutes at 37° C. Benzalkonium chloride was then added to each well. After 15 minutes of incubation, the supernatants in each well were collected in 15 ml tubes; the cells were detached by the action of 0.25% trypsin for 5 minutes at 37° C. and added to their respective supernatants. After centrifugation of the tubes, the cells were washed twice in phosphate buffer. The cellular residue was resuspended in phosphate buffer at a concentration of 1 million cells per milliliter.
One hundred microliters of this cellular suspension having a concentration of 10^6/ml were first fixed and permeabilized in one milliliter of absolute ethanol at −20° C. for one hour; then, after washing in phosphate buffer, the DNA was stained with propidium iodide (100 microliters at a concentration of 0.5 mg/ml) for one hour at 4° C. and subsequently analyzed on a cytofluorimeter (Epics XL-MCL, Beckman).
The percentage of sub-G1 peaks, i.e. the percentage of fragmented DNA, and consequently the number of conjunctival cells degraded by apoptosis, was measured.

[3] = tested on: corneal and/or conjunctival cells of human origin, in culture; experiment: Dichlorofluorescein diacetate (DCFH-DA) test of free radicals (hydrogen peroxide); type: cell-based; conditions: different concentrations; cells exposed to environmental agents
Procedure: The tests are performed by cytofluorimetric microtitration in cold light. […] It combines the reproducibility of the microplate methods with the sensitivity of the cytometric methods and has a very broad detection spectrum (280-870 nm). The microplate is scanned by a pencil of light of a given wavelength which illuminates each culture well for less than 0.3 second, thereby limiting any probe extinction phenomenon.
Corneal and/or conjunctival cells of human origin, in culture, are exposed to various environmental agents in order to induce the release of free radicals. The active compounds of the invention (Cu/Zn SOD or alpha-lipoic acid) are tested at different concentrations on this model. The presence of free radicals in the culture medium is evaluated by the DCFH-DA test (Molecular Probes, Eugene, Oreg., USA) in fluorimetry (λexc.=490 nm−rem.=535 nm, I=4 V). The fluorogenic probe becomes fluorescent when it binds to hydrogen peroxide. The DCFH-DA solution used is a 20 μM solution in Dulbecco-modified minimum essential medium (DMEM). The cultures are then placed for 20 minutes in DMEM containing the probe, after which they are extracted in order to measure the production of hydrogen peroxide. The measurement is made directly on the cells in 96-well plates (Debbasch C. et al. 2000).

[4] = after instillation into the eye (De Saint Jean et al. 1999); cited from earlier work

O=C(O)CCCCC1CCSS1 (racemic) [Alpha-lipoic acid, racemic alpha-lipoic acid]
Production of superoxide anion and cellular degeneration associated with lipid peroxidation (hydroethidine test) [1]: significant dose-related reduction
Percentage of sub-G1 peaks ([2]; alpha-lipoic acid 0.5 μg/ml DMEM + BAC 0.001%): 8%
Percentage of sub-G1 peaks ([2]; alpha-lipoic acid 0.5 μg/ml in DMEM, no BAC (control)): 7%
Percentage of sub-G1 peaks ([2]; alpha-lipoic acid 5 μg/ml DMEM + BAC 0.001%): 13%
Percentage of sub-G1 peaks ([2]; alpha-lipoic acid 5 μg/ml in DMEM, no BAC (control)): 7%
Deleterious effects of free radicals on corneal and/or conjunctival cells (DCFH-DA test) [3]: significant dose-related decrease

benzalkonium chloride [BAC]
Half-life [4]: 20 h
Percentage of sub-G1 peaks ([2]; BAC 0.001% alone in DMEM (reference, maximum apoptosis; DMEM control = 10)): 23%
